Test results as given in patent US8815893B2, “Hetarylaminonaphthyridines” (Merck Patent GmbH, priority 2010, dated 2014).

What was measured:
[1] = biological target: T1, GST-ALK5 (Homo sapiens, UniProt P36897); test: In-vitro (enzyme) kinase assay, 384-well flashplate (example 14); format: biochemical; conditions: GST-ALK5, GST-SMAD2 substrate, 33P-ATP flashplate, 30° C. 45 min; IC50 classes; read-out: TβR activity (example 14)
T1 sequence (P36897 34-503): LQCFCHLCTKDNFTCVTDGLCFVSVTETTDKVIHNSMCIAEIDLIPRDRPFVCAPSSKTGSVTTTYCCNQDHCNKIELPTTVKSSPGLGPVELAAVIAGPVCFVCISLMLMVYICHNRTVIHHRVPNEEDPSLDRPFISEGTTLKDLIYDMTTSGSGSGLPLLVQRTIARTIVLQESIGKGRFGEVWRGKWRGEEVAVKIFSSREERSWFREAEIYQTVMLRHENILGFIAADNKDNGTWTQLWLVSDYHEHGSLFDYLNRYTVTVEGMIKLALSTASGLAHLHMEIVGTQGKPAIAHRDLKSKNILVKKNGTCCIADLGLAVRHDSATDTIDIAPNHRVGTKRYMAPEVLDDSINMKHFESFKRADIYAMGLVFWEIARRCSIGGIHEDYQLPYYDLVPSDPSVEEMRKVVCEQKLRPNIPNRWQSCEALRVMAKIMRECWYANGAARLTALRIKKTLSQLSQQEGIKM
Protocol: In-Vitro (Enzyme) Assay for Determination of the Efficacy of Inhibitors of the Inhibition of TGF-Beta-Mediated Effects
The kinase assay was carried out as 384-well flashplate assay. 31.2 nM of GST-ALK5, 439 nM of GST-SMAD2 and 3 mM of ATP (with 0.3 μCi of ^33P-ATP/well) were incubated in a total volume of 35 μl (20 mM of HEPES, 10 mM of MgCl2, 5 mM of MnCl2, 1 mM of DTT, 0.1% of BSA, pH 7.4) without or with test substance (5-10 concentrations) at 30° C. for 45 min. The reaction was stopped using 25 μl of 200 mM EDTA solution, filtered with suction at room temperature after 30 min, and the wells were washed with 3 times 100 μl of 0.9% NaCl solution. Radioactivity was measured in the TopCount. The IC50 values were calculated using RS1. Above and below, all temperatures were indicated in ° C.

[2] = test system: lung epithelial cell line Mv1Lu; test: Cellular assay for TGF-beta receptor I kinase inhibitors: elimination of TGF-beta-mediated growth inhibition (example 13); format: cell-based; conditions: 48 h; Mv1Lu cells, 1 ng/ml TGF-beta, 0.5% FCS, two days, Crystal Violet staining; read-out: TβR activity (example 13)
Protocol: Cellular Assay for Testing TGF-Beta Receptor I Kinase Inhibitors
As an example, the ability of the inhibitors to eliminate TGF-beta-mediated growth inhibition was tested. Cells of the lung epithelial cell line Mv1Lu were sown in a defined cell density in a 96-well microtiter plate and cultivated overnight under standard conditions. Next day, the medium was replaced by medium which comprises 0.5% of FCS and 1 ng/ml of TGF-beta, and the test substances were added in defined concentrations, generally in the form of dilution series with 5 fold steps. The concentration of the solvent DMSO was constant at 0.5%. After a further two days, Crystal Violet staining of the cells was carried out. After extraction of the Crystal Violet from the fixed cells, the absorption was measured spectrophotometrically at 550 nm. It could be used as a quantitative measure of the adherent cells present and thus of the cell proliferation during the culture.

Compound	IC50 [1]	IC50 [2]
NCCCC(=O)Nc1cc(Nc2cc(-c3cc(Cl)ccc3F)nc3ncccc23)ncn1 [compound 135]	< 100 nM	100 to 1000 nM
CCOc1ccc(Cl)cc1-c1cc(Nc2ccnc(NC(C)=O)c2)c2cccnc2n1 [compound 79]	100 to 1000 nM	100 to 1000 nM
CCN1CCN(C(=O)c2cnccc2Nc2cc(-c3cc(Cl)ccc3F)nc3ncccc23)CC1 [compound 132]	1000 to 10000 nM	1000 to 10000 nM
Cc1cc(-c2cc(Nc3cc(N(C)C)ncn3)c3cccnc3n2)c(C)o1 [compound 145]	> 10000 nM	> 10000 nM
CN(C)CC(=O)Nc1cc(Nc2cc(-c3cc(Cl)ccc3F)nc3ncccc23)ncn1 [compound 112]	< 100 nM	< 100 nM
Cc1cccc(-c2cc(Nc3ccncc3Cl)c3cccnc3n2)n1 [compound 80]	< 100 nM	< 100 nM
CC(C)NC(=O)c1cnccc1Nc1cc(-c2cc(Cl)ccc2F)nc2ncccc12 [compound 99]	< 100 nM	< 100 nM
CC(C)(N)CC(=O)Nc1cc(Nc2cc(-c3cc(F)ccc3F)nc3ncccc23)ncn1 [compound 107]	< 100 nM	< 100 nM
Cc1cc(-c2cc(Nc3cc(NCCN4CCCC4)ncn3)c3cccnc3n2)c(C)o1 [compound 147]	1000 to 10000 nM	> 10000 nM
CCCC(=O)Nc1cc(Nc2cc(-c3cc(Cl)ccc3F)nc3ncccc23)ccn1 [compound 91]	< 100 nM	< 100 nM
O=C(CCN1CCNCC1)Nc1cc(Nc2cc(-c3cc(Cl)ccc3F)nc3ncccc23)ncn1 [compound 102]	> 10000 nM	> 10000 nM
Cc1cccc(-c2cc(Nc3ccnc(NC(N)=O)c3)c3cccnc3n2)n1 [compound 85]	< 100 nM	100 to 1000 nM
Oc1nccc(Nc2cc(-c3cc(Cl)ccc3F)nc3ncccc23)n1 [compound 76]	100 to 1000 nM	1000 to 10000 nM
Cc1nn(-c2cc(-c3cc(F)ccc3F)nc3ncccc23)c2ccncc12 [compound 100]	< 100 nM	100 to 1000 nM
Cc1ccc(-c2cc(Nc3ccncc3)c3cccnc3n2)o1 [compound 123]	100 to 1000 nM	100 to 1000 nM
CC(C)(C)CC(=O)Nc1cc(Nc2cc(-c3cc(Cl)ccc3F)nc3ncccc23)ccn1 [compound 87]	< 100 nM	< 100 nM
CN(C)CCNC(=O)c1cnccc1Nc1cc(-c2cc(Cl)ccc2F)nc2ncccc12 [compound 72]	< 100 nM	< 100 nM
O=c1[nH]cc(-c2cc(-c3cc(Cl)ccc3F)nc3ncccc23)c2ccncc12 [compound 140]	< 100 nM	< 100 nM
CC(=O)Nc1nccc(Nc2cc(-c3cc(Cl)ccc3F)nc3ncccc23)n1 [compound 98]	< 100 nM	< 100 nM
Cc1cccc(-c2cc(Nc3ccnc(Cl)c3)c3cccnc3n2)n1 [compound 83]	100 to 1000 nM	1000 to 10000 nM
Cc1cccc(-c2cc(Nc3cc(F)nc(N4CCOCC4)n3)c3cccnc3n2)n1 [compound 84]	> 10000 nM	> 10000 nM
O=C(NCCN1CCCC1)c1cnccc1Nc1cc(-c2cc(Cl)ccc2F)nc2ncccc12 [compound 133]	< 100 nM	< 100 nM
Fc1ccc(F)c(-c2cc(Nc3cc(Cl)ncn3)c3cccnc3n2)c1 [compound 103]	100 to 1000 nM	> 10000 nM
O=C(NCCN1CCCC1)c1cc(Nc2cc(-c3cc(F)ccc3F)nc3ncccc23)ccn1 [compound 122]	1000 to 10000 nM	> 10000 nM
COC(=O)c1cc(Nc2cc(-c3cc(F)ccc3F)nc3ncccc23)ccn1 [compound 116]	1000 to 10000 nM	> 10000 nM
Cc1cccc(-c2cc(-n3nc(C)c4cnccc43)c3cccnc3n2)n1 [compound 77]	< 100 nM	1000 to 10000 nM
NCC(=O)Nc1cc(Nc2cc(-c3cc(Cl)ccc3F)nc3ncccc23)ncn1 [compound 110]	< 100 nM	< 100 nM
Fc1ccc(Cl)cc1-c1cc(-n2ncc3cnccc32)c2cccnc2n1 [compound 73]	< 100 nM	< 100 nM

Compound	IC50 [1]	IC50 [2]
CN1CCC(C(=O)Nc2cc(Nc3cc(-c4ccccc4F)nc4ncccc34)ncn2)CC1 [compound 115]	< 100 nM	100 to 1000 nM
Fc1ccc(F)c(-c2cc(Nc3ccnc(Cl)c3)c3cccnc3n2)c1 [compound 125]	< 100 nM	1000 to 10000 nM
CS(=O)(=O)Nc1cc(Nc2cc(-c3cc(Cl)ccc3F)nc3ncccc23)ccn1 [compound 74]	100 to 1000 nM	1000 to 10000 nM
CN1CCC(C(=O)Nc2cc(Nc3cc(-c4cc(F)ccc4F)nc4ncccc34)ncn2)CC1 [compound 117]	< 100 nM	< 100 nM
CN(C)CCNc1cc(Nc2cc(-c3cc(Cl)ccc3F)nc3ncccc23)ncn1 [compound 120]	100 to 1000 nM	100 to 1000 nM
O=c1c2cnccc2c(-c2cc(-c3cc(Cl)ccc3F)nc3ncccc23)cn1CCN1CCCC1 [compound 146]	100 to 1000 nM	100 to 1000 nM
CC(=O)Nc1cc(Nc2cc(-c3ccccc3F)nc3ncccc23)ncn1 [compound 88]	< 100 nM	100 to 1000 nM
O=[N+]([O-])c1cn(-c2cc(-c3cc(Cl)ccc3F)nc3ncccc23)c2ccncc12 [compound 139]	< 100 nM	1000 to 10000 nM
Fc1ccc(Cl)cc1-c1cc(Nc2cc(NC3CCCCC3)ncn2)c2cccnc2n1 [compound 124]	1000 to 10000 nM	> 10000 nM
CC(C)(C)OC(=O)NCC(=O)Nc1cc(Nc2cc(-c3cc(Cl)ccc3F)nc3ncccc23)ncn1 [compound 109]	< 100 nM	< 100 nM
Fc1ccc(Cl)cc1-c1cc(Cc2ccncc2)c2cccnc2n1 [compound 75]	1000 to 10000 nM	> 10000 nM
Nc1cc(Nc2cc(-c3cc(F)ccc3F)nc3ncccc23)ncn1 [compound 106]	< 100 nM	100 to 1000 nM
CC(C)(C)CCNc1cc(Nc2cc(-c3cc(Cl)ccc3F)nc3ncccc23)ncn1 [compound 126]	100 to 1000 nM	100 to 1000 nM
COCCNc1cc(Nc2cc(-c3cc(F)ccc3F)nc3ncccc23)ncn1 [compound 138]	100 to 1000 nM	100 to 1000 nM
Cc1cccc(-c2cc(Nc3ccncc3CO)c3cccnc3n2)n1 [compound 81]	< 100 nM	100 to 1000 nM
COC(=O)c1nccc2c1ccn2-c1cc(-c2cc(Cl)ccc2F)nc2ncccc12 [compound 108]	100 to 1000 nM	1000 to 10000 nM
CC(C)(C)OC(=O)NC(C)(C)C(=O)Nc1cc(Nc2cc(-c3cc(Cl)ccc3F)nc3ncccc23)ncn1 [compound 134]	> 10000 nM	> 10000 nM
CNC(=O)c1cc(Nc2cc(-c3cc(F)ccc3F)nc3ncccc23)ccn1 [compound 118]	100 to 1000 nM	1000 to 10000 nM
CN(C)CCNC(=O)c1cc(Nc2cc(-c3cc(F)ccc3F)nc3ncccc23)ccn1 [compound 119]	1000 to 10000 nM	> 10000 nM
CN1CCC(C(=O)Nc2cc(Nc3cc(-c4cc(Cl)ccc4F)nc4ncccc34)ncn2)CC1 [compound 111]	< 100 nM	< 100 nM
CC(C)(N)C(=O)Nc1cc(Nc2cc(-c3cc(Cl)ccc3F)nc3ncccc23)ncn1 [compound 136]	100 to 1000 nM	100 to 1000 nM
CN1CCN(c2nccc(Nc3cc(-c4cc(Cl)ccc4F)nc4ncccc34)n2)CC1 [compound 93]	> 10000 nM	> 10000 nM
CN(C)c1cc(Nc2cc(-c3cc(Cl)ccc3F)nc3ncccc23)ncn1 [compound 121]	< 100 nM	< 100 nM
CCN1CCC(CNc2cc(Nc3cc(-c4cc(F)ccc4F)nc4ncccc34)ncn2)CC1 [compound 141]	< 100 nM	100 to 1000 nM
CC(C)C(=O)Nc1cc(Nc2cc(-c3cc(Cl)ccc3F)nc3ncccc23)ncn1 [compound 92]	< 100 nM	< 100 nM
CC(C)(C)CC(=O)Nc1cc(Nc2cc(-c3ccccc3F)nc3ncccc23)ncn1 [compound 114]	< 100 nM	100 to 1000 nM
CCOC(=O)c1cc(Nc2cc(-c3cc(F)ccc3F)nc3ncccc23)ccn1 [compound 128]	> 10000 nM	> 10000 nM
